Data taken from patent US9603829B2, “HSP90 inhibitors with modified toxicity” (THE REGENTS OF THE UNIVERSITY OF COLORADO, a body corporate, priority 2011, dated 2017).
Read-outs that look alike come from different tables or passages of the source. Values belong to the molecule of their own block, whether it stands above or below them.

Key:
[1] = Glutathione conjugation of benzoquinone ansamycins (HPLC, LC-MS); type: in vitro ADME; conditions: 50 μM BA, pH 7.4, room temperature
Experimental: BA-GSH conjugate formation was analyzed by HPLC at 270 nm and further confirmed by LC-MS.

SHSY-5Y cells = test: MTT growth inhibition assay in SHSY-5Y dopaminergic cells; type: cell-based, human; conditions: read-out: SHSY-5Y IC50
Experimental: The 19-substituted benzoquinone ansamycins were also tested in vitro for their ability to reduce the toxicity of BQAs to SH-SY5Y cells a dopaminergic model system of relevance to neurodegenerative disease. Referring to FIG. 9, toxicity of BQAs in SH-SY-5Y cells was measured using trypan blue exclusion (panel A), MTT growth inhibition assay (panel B) and annexin V/PI staining for apoptosis (panel C). Cells in A and C were treated with BQAs (5 μM) for 16 h; cells in B were treated with BQAs for 4 h then allowed to grow in drug-free medium for 72 h. […] The combination of these two properties are likely to be important to the neuroprotective properties of the 19-substituted BQAs.
Growth inhibition assays (MTT) were conducted in human SHSY-5Y cells following a 4 hr treatment with GA or 19Me-GA. Cell were allowed to grow for 72 hrs following drug treatment. The 19-methyl substituted compounds in all series were minimally toxic (see FIG. 12 for data with geldanamycin, MTT assay, results are expressed as the mean±SD, n=3).

[2] = Phase I / phase 1 clinical trials; cited from earlier work
[3] = system: MiaPaCa2 human pancreatic cancer cells; test: MTT growth inhibition in MiaPaCa2 cells; type: cell-based; conditions: 4 hr treatment, then 72 h growth, MTT, read-out: IC50 MiaPaCa2
Experimental: (§1) The inventors also examined the ability of 19 BQAs to inhibit the growth of human pancreatic cancer cell lines (FIG. 16). For growth inhibition studies (MTT) cells were treated with drugs for 4 hr and then allowed to grow for 72 h. For biomarker studies MiaPaCa2 cells were treated with DMAG analogs (5 μM) for 24 hr. 19 BQAs inhibit the growth of human pancreatic cancer cell lines (FIG. 16A, 16B) and induce biomarkers of Hsp90 inhibition (FIG. 16C) using isogenic Panc-1 (NQO1 null) and Panc-1/C5 (NQO1 expressing) cell lines.

[4] = system: primary mouse hepatocytes; test: Hepatotoxicity in primary mouse hepatocytes (MTT); type: cell-based; conditions: 4 hr, confirmed by Trypan Blue and AST leakage
Experimental: The inventors next tested the effect of 19-substitution of BQAs on hepatotoxicity in isolated hepatocyte systems. Isolated primary mouse hepatocytes were grown on coated 96-well plates and exposed to BQAs for 4 h after which their survival was determined using the MTT assay.
As described above, a major obstacle in the development of BQA as drugs has been their ability to induce hepatotoxicity in preclinical studies. […] Toxicity was measured using MTT assay and confirmed using Trypan Blue and AST leakage. The data shown in FIG. 19 were generated using MTT analysis but similar readouts were obtained using either trypan blue exclusion or leakage of AST from hepatocytes.

[5] = system: MDA468/NQ16 breast cancer cells; test: MTT growth inhibition in isogenic MDA468/NQ16 and MDA468 cells; type: cell-based, human; conditions: NQO1-rich vs NQO1-null isogenic cells
Experimental: The 19-substituted benzoquinone ansamycins were also tested in vitro for their ability to inhibit growth similar to DMAG in human breast cancer cells (FIG. 10). MDA468/NQ16 breast cancer cells were treated with 19-substituted DMAG analogs for 4 hours, after which drug-containing media was removed and cells were allowed to grow for an additional 72 h. Cell viability was determined using the MTT assay.
(§2) The ability of 19-substituted BQAs to induce growth inhibition was measured by MTT in isogenic MDA468 (null NQO1) and MDA468/NQ16 (high NQO1) cells. […] Biomarkers of Hsp90 inhibition (Raf-1, AKT degradation and Hsp70 induction) were more pronounced in MDA468/NQ16 cells compared to MDA468 cells following treatment with 19-substituted DMAG analogs.

[6] = system: Hsp90 (Raf-1, AKT degradation and Hsp70 induction); test: Biomarkers of Hsp90 inhibition in MDA468/NQ16 cells; type: cell-based, human
Experimental: as §2

[7] = system: BT474 human breast cancer cells; test: MTT growth inhibition in BT474 cells; type: cell-based; conditions: BT474, 4 hr treatment, MTT 72 h later
Experimental: (§3) The inventors extended the studies with 19-substituted DMAG analogs to include the Her2^+ human breast cancer cell line BT474 (FIG. 15). Growth inhibition (FIG. 15, left panel) was measured in BT474 cells following treatment with analogs for 4 hr. Growth inhibition (MTT) was performed 72 h following drug treatments. Biomarkers of Hsp90 inhibition, Raf-1, AKT, CDK4 and Her2 degradation as well as Hsp70 induction were measured by immunoblot analysis in human BT474 breast cancer cells following treatment with 19-substituted DMAG analogs (5 μM) for 24 hr ([…], left panel).

[8] = system: Hsp90 (Raf-1, AKT, CDK4, Her2 degradation, Hsp70 induction); test: Immunoblot biomarkers of Hsp90 inhibition in BT474 cells; type: cell-based, human
Experimental: as §3

[9] = system: human pancreatic cancer cell lines (Panc-1, Panc-1/C5); test: MTT growth inhibition in human pancreatic cancer cell lines; type: cell-based; conditions: human pancreatic cancer cell lines, 4 hr treatment, 72 h growth, MTT (FIG. 16A)
Experimental: as §1

Hsp90 = test: Biomarkers of Hsp90 inhibition in MiaPaCa2 cells; type: cell-based, human; conditions: 5 μM, 24 hr (FIG. 16C)
Experimental: as §1

p23/Hsp90 interaction = test: Immunoprecipitation of p23 and Hsp90 in BT474 cells; type: cell-based, human; conditions: 5 μM, 24 hr
Experimental: Forward and reverse immunoprecipitation studies were performed in BT474 cells treated with DMAG analogs (5 μM) for 24 hr.

cdc37/Hsp90 interaction = test: Immunoprecipitation of cdc37 with Hsp90 in BT474 and MDA468/NQ16 cells; type: cell-based, human; conditions: 5 μM, 24 hr
Experimental: Similarly, the association of cdc37 with hsp90 was examined in BT474 cells and MDA468/NQ16 cells by immunoprecipitation following treated with analogs (5 μM) for 24 hr. […] This finding is consistent with X ray data using purified Hsp90 showing that the larger 19-phenyl substituent causes greater conformational change in the Hsp90 structure than smaller 19-substituents (not shown). This also correlates with the differential effect of 19-phenyl and 19-methyl DMAG on clients chaperoned by cdc37 to Hsp90 which include Raf1, Akt, cdc2 and cdk4 (FIGS. 8,9,10).

[10] = Homo sapiens, SH-SY5Y, 4 hr treatment, then 72 hrs growth, MTT
[11] = 4 hr treatment, then 72 hrs growth, MTT

Structure (SMILES): CO[C@H]1/C=C\C=C(/C)C(=O)NC2=CC(=O)C(NCCN3CCCC3)=C(C[C@@H](C)C[C@H](OC)[C@H](O)[C@@H](C)/C=C(\C)[C@@H]1OC(N)=O)C2=O [17AEP-GA, 17-demethoxy-17-[[2-(pyrrolidin-1-yl)ethyl]amino]-geldanamycin]
fraction conjugated with glutathione ([1]; 5 mM glutathione, within 10 h): about 90%

Structure (SMILES): C=CCNC1=C2C[C@@H](C)C[C@H](OC)[C@H](O)[C@@H](C)/C=C(\C)[C@H](OC(N)=O)[C@@H](OC)/C=C\C=C(/C)C(=O)NC(=C(C)C1=O)C2=O [19Me-17AAG, (4E,6Z,8S,9S,10E,12S,13R,14S,16R)-19-(Allylamino)-13-hydroxy-8,14-dimethoxy-4,10,12,16,21-pentamethyl-3,20,22-trioxo-2-azabicyclo[16.3.1]docosa-1(21),4,6,10,18-pentaen-9-yl carbamate]
IC50 (SHSY-5Y cells; Homo sapiens, SH-SY5Y): > 20 µM

Structure (SMILES): COC1=C2C[C@@H](C)C[C@H](OC)[C@H](O)[C@@H](C)/C=C(\C)[C@H](OC(N)=O)[C@@H](OC)/C=C\C=C(/C)C(=O)NC(=C(C)C1=O)C2=O [19Me-GA, (4E,6Z,8S,9S,10E,12S,13R,14S,16R)-13-Hydroxy-8,14,19-trimethoxy-,10,12,16,21-pentamethyl-3,20,22-trioxo-2-azabicyclo[16.3.1]docosa-1(21),4,6,10,18-pentaen-9-yl carbamate]
IC50 (SHSY-5Y cells; Homo sapiens, SH-SY5Y): > 10 µM

IC50 (SHSY-5Y cells; [10]): 0.133 µM
Structure (SMILES): COC1=C2C[C@@H](C)C[C@H](OC)[C@H](O)[C@@H](C)/C=C(\C)[C@H](OC(N)=O)[C@@H](OC)/C=C\C=C(/C)C(=O)NC(=CC1=O)C2=O [GA, geldanamycin, reference compound]
hepatotoxicity / toxicity in clinical trials [2]: unacceptable hepatotoxicity

IC50 (SHSY-5Y cells; [11]): 9.4 µM
IC50 [3]: 0.13 ± 0.01 µM
17-DMAG-SG conjugate formed ([1]; 5 mM reduced glutathione, within 4 h): approximately 47 μM
Structure (SMILES): CO[C@H]1/C=C\C=C(/C)C(=O)NC2=CC(=O)C(NCCN(C)C)=C(C[C@@H](C)C[C@H](OC)[C@H](O)[C@@H](C)/C=C(\C)[C@@H]1OC(N)=O)C2=O [DMAG, 17-demethoxy-17-[[2-(dimethylamino)ethyl]amino]-geldanamycin, reference compound]
hepatotoxicity [4]: significant hepatotoxicity
hepatotoxicity / toxicity in clinical trials [2]: significant toxicities

Structure (SMILES): C=CCNC1=C2C[C@@H](C)C[C@H](OC)[C@H](O)[C@@H](C)/C=C(\C)[C@H](OC(N)=O)[C@@H](OC)/C=C\C=C(/C)C(=O)NC(=C(c3ccccc3)C1=O)C2=O [19Ph-17AAG, (4E,6Z,8S,9S,10E,12S,13R,14S,16R)-19-(Allylamino)-13-hydroxy-8,14-dimethoxy-4,10,12,16-tetramethyl-3,20,22-trioxo-21-phenyl-2-azabicyclo[16.3.1]docosa-1(21),4,6,10,18-pentaen-9-yl carbamate]
IC50 (SHSY-5Y cells; Homo sapiens, SH-SY5Y): > 20 µM

Structure (SMILES): C=CCNC1=C2C[C@@H](C)C[C@H](OC)[C@H](O)[C@@H](C)/C=C(\C)[C@H](OC(N)=O)[C@@H](OC)/C=C\C=C(/C)C(=O)NC(=CC1=O)C2=O [17AAG, 17-demethoxy-17-(2-propenylamino)-geldanamycin, reference compound]
IC50 (SHSY-5Y cells; [11]): 16.2 µM
decrease in IC50 in MDA468/NQ16 cells compared to MDA468 cells [5]: greater than 66 fold
effect on markers of Hsp90 inhibition (Hsp70 induction and Raf-1 degradation) in MDA468/NQ16 compared to MDA468 cells [6]: greater effect on markers of Hsp90 inhibition
hepatotoxicity / toxicity in clinical trials [2]: dose-limiting toxicity

IC50 (SHSY-5Y cells; [10]): > 20 µM
IC50 ([3]; Homo sapiens, MIA PaCa-2): 35.8 ± 5.5 µM
Structure (SMILES): CO[C@H]1/C=C\C=C(/C)C(=O)NC2=C(C)C(=O)C(NCCN(C)C)=C(C[C@@H](C)C[C@H](OC)[C@H](O)[C@@H](C)/C=C(\C)[C@@H]1OC(N)=O)C2=O [19Me-DMAG, (4E,6Z,8S,9S,10E,12S,13R,14S,16R)-19-(2-(Dimethylamino)ethylamino)-13-hydroxy-8,14-dimethoxy-4,10,12,16,21-pentamethyl-3,20,22-trioxo-2-azabicyclo[16.3.1]docosa-1(21),4,6,10,18-pentaen-9-yl carbamate]
hepatotoxicity [4]: no toxicity was observed
growth inhibition [7]: no growth inhibition could be observed
Hsp70 induction ([8]; BT474, 5 μM, 24 hr, immunoblot): robust Hsp70 response
effects on Hsp90 client proteins (Raf-1, AKT, Her2, CDK4) ([8]; BT474, 5 μM, 24 hr, immunoblot): diminished effects on Hsp90 client proteins
effects on clients chaperoned by cdc37 to Hsp90 (Raf1, Akt, cdc2, cdk4) ([8]; cell line not given): had little effect
Hsp70 induction ([6]; MDA468/NQ16 (high NQO1) cells): equivalent Hsp70 response to 19-phenyl DMAG
Raf-1 and AKT degradation ([6]; MDA468/NQ16 (high NQO1) cells): much less pronounced effect on Hsp90 Raf1 and Akt
growth inhibitory activity [9]: little effect
induction of biomarkers of Hsp90 inhibition (Hsp90): little effect
interaction of p23 and Hsp90 (p23/Hsp90 interaction): disrupted the interaction of p23 and Hsp90
interaction of cdc37 with Hsp90 (cdc37/Hsp90 interaction): had little effect
